Results: PMC5128008, “Antimicrobial activity and stability of the D-amino acid substituted derivatives of antimicrobial peptide polybia-MPI” (AMB Express, 2016)
Values after ≈ are worked out from the molar mass of the structure shown. Where a SMILES comes first, the peptide text is derived from it. Where no end group is shown, it is not given here. [ ]: non-standard residue; d: D form.

Key:
[1] = test system: Bacillus subtilis (ATCC 23857); experiment: MIC, broth microdilution; type: cell-based; details: Mueller–Hinton broth, 2 × 10^4 cfu/ml, peptide 1 to 256 µM, 18 h, 37 °C, visible turbidity, triplicate
Method: (§1) The minimal inhibitory concentration (MIC) of the peptides was measured in triplicate by the standard broth microdilution method (Peterson et al. [1980]; Wang et al. [2012]). In brief, bacteria/fungi were cultured overnight to mid-logarithmic-phase in Mueller–Hinton broth (MHB)/Sabouraud dextrose broth. The cultures were diluted to a final concentration of 2 × 10^4 cfu/ml in fresh Mueller–Hinton broth (MHB)/Sabouraud dextrose broth. Each well of 96-well propylene microtitre plates was filled with 100 µl cell suspension and 100 μl peptide solution of twofold diluted serially. And the final concentrations of peptide mixtures ranged from 1 to 256 µM. Controls were done without peptides. After 18 h of incubation at 37 °C (bacteria)/35 °C (fungi), the minimal inhibitory concentration (MIC) of the peptides was evaluated by visible turbidity in each well.

[2] = test system: Candida tropicalis (ATCC 750); experiment: MIC, broth microdilution; type: cell-based; details: Sabouraud dextrose broth, 2 × 10^4 cfu/ml, peptide 1 to 256 µM, 18 h, 35 °C, visible turbidity, triplicate
Method: as §1

[3] = test system: Staphylococcus epidermidis (ATCC 12228); experiment: MIC, broth microdilution; type: cell-based; details: Mueller–Hinton broth, 2 × 10^4 cfu/ml, peptide 1 to 256 µM, 18 h, 37 °C, visible turbidity, triplicate
Method: as §1

[4] = test system: Candida glabrata ATCC (ATCC 2001); experiment: MIC, broth microdilution; type: cell-based; details: Candida glabrata (ATCC 2001), Sabouraud dextrose broth, 2 × 10^4 cfu/ml, peptide 1 to 256 µM, 18 h, 35 °C, visible turbidity, triplicate
Method: as §1

E. coli (ATCC 2592) = experiment: MIC, broth microdilution; type: cell-based; details: Mueller–Hinton broth, 2 × 10^4 cfu/ml, peptide 1 to 256 µM, 18 h, 37 °C, visible turbidity, triplicate
Method: as §1

chymotrypsin = experiment: RP-HPLC analysis of stability to chymotrypsin; type: in vitro ADME; details: peptide 10 mM, chymotrypsin 0.2 mg/ml, 37 °C, 0 and 360 min, TFA/acetonitrile precipitation, Fig. 7
Method: (§2) The stability of polybia-MPI and its analogues was assayed with trypsin or chymotrypsin in a volume ratio of 1:15 (peptide:trypsin) (Choi et al. [2013]; Hamamoto et al. [2002]; Molhoek et al. [2011]). Peptides at the concentration of 10 mM were incubated with trypsin or chymotrypsin (0.2 mg/ml) at 37 °C. 40 µl samples of the incubations were taken for the time of 0 and 360 min, respectively. Then, the samples were mixed with 80 µl of 15% trifluoroacetic acid (TFA) and 80 µl acetonitrile which incubated at 4 °C for at least 15 min to precipitate proteins. The supernatant was collected of each sample after centrifugation at 13,000 rpm for 10 min and were detected with reverse phase high performance liquid chromatography (RP-HPLC) analysis.
(§3) Fig. 7 HPLC analysis of the susceptibility of polybia-MPI, D-MPI and D-lys-MPI to trypsin and chymotrypsin. Peptides at the concentration of 10 mM were incubated with trypsin or chymotrypsin at 37 °C. At the determined time interval, samples were taken and mixed with trifluoroacetic acid (TFA) and acetonitrile to precipitate proteins, respectively. Then the samples were detected with reverse phase high performance liquid chromatography (RP-HPLC) analysis

(ATCC 700603) [5] = details: ATCC 700603, 18 h
C. glabrata (ATCC 2001) = experiment: MFC, plating after MIC incubation; type: cell-based; details: 50 µl aliquots from MIC wells onto agar plates, overnight 35 °C, lowest concentration reducing CFUs at least 99.9%
Method: as §1
(§4) The minimal bactericidal concentrations (MBCs) and minimum fungicidal concentration (MFCs) of the peptides was determined at the end of the incubation period by transferring 50 µl aliquots onto agar plates and incubated overnight at 37 °C/35 °C. The MBC/MFC was set as the lowest concentration of the number of CFUs that reduced at least 99.9%.

[6] = test system: C. parapsilosis (ATCC 22019); experiment: MFC, plating after MIC incubation; type: cell-based; details: 50 µl aliquots from MIC wells onto agar plates, overnight 35 °C, lowest concentration reducing CFUs at least 99.9%
Method: as §1, §4

C. albicans (ATCC 14053) = experiment: MFC, plating after MIC incubation; type: cell-based; details: 50 µl aliquots from MIC wells onto agar plates, overnight 35 °C, lowest concentration reducing CFUs at least 99.9%
Method: as §1, §4

C. krusei (ATCC 6258) = experiment: MFC, plating after MIC incubation; type: cell-based; details: 50 µl aliquots from MIC wells onto agar plates, overnight 35 °C, lowest concentration reducing CFUs at least 99.9%
Method: as §1, §4

C.tropicalis (ATCC 750) = experiment: MFC, plating after MIC incubation; type: cell-based; details: 50 µl aliquots from MIC wells onto agar plates, overnight 35 °C, lowest concentration reducing CFUs at least 99.9%
Method: as §1, §4

trypsin = experiment: RP-HPLC analysis of stability to trypsin; type: in vitro ADME; details: peptide 10 mM, trypsin 0.2 mg/ml, 37 °C, 0 and 360 min, TFA/acetonitrile precipitation, Fig. 7
Method: as §2, §3

[7] = RP-HPLC analysis of stability to proteases in human serum; type: in vitro ADME; details: method details not given
From the text: In the present study, HPLC was used to determine the stability of polybia-MPI, D-lys-MPI and D-MPI to trypsin, chymotrypsin and proteases in human serum.

human erythrocytes = experiment: Hemolytic activity; type: cell-based; details: 37 °C, Fig. 2; for hemolytic activity under the concentration of 100 μM: 8% human erythrocytes in PBS pH 7.4, 60 min, hemoglobin release at 490 nm; for hemolytic activity compared to polybia-MPI: 8% human erythrocytes in PBS pH 7.4, peptide up to 256 µM, 60 min, 490 nm
Method: Fresh human blood was collected in heparinized-tube, diluted in cold PBS (pH 7.4) and centrifuged at 800g for 10 min to remove the serum and buffy coat. The erythrocytes were washed twice time and re-suspended in the same buffer to a final erythrocyte concentration of 8% for the hemolysis assay (Sharma and Sharma [2001]). The RBC (red blood cell) suspension of 100 µl was transferred into a 96 well microtiter plate. Peptides were dissolved in PBS (pH 7.4) of different concentrations from 2 to 256 µM were incubated with 8% erythrocytes suspension for 60 min at 37 °C. Subsequently, the plate was centrifuged at 1200×g for 10 min. Then, aliquots of 100 µl supernatant were retransferred to an another 96-well plates and measured to monitor the release of hemoglobin by microplate reader (Bio-Rad 680) at 490 nm, which indicated RBC membrane damage. 100 µl RBC (red blood cell) suspension with 0.2% Triton-X 100 or PBS was used as positive and negative control, respectively. Hemolysis rate was determined as below: Hemolysisrate(%)=(A-A2)/(A1-A2)×100% where A is the absorbance of indicator mixtures with different factors, A1 and A2 are the positive control, and the negative control, respectively (Kim et al. [2011]).
Fig. 2 The hemolytic activity of polybia-MPI and synthetic D-MPI and D-lys-MPI against human erythrocytes were determined. Fresh human blood was collected and centrifuged to remove the serum and buffy coat, and re-suspended to a final erythrocyte concentration of 8% erythrocytes suspension. Then, peptides of different concentrations from 2 to 256 μM were incubated with erythrocytes suspension for 60 min. Subsequently, the erythrocytes suspension was centrifuged and measured to monitor the release of hemoglobin at 490 nm

(ATCC 700603) [8] = details: ATCC 700603, 18 h; remark: listed apart in the source

Compound | MIC [1] [µM] | MIC [2] [µM] | MIC [3] [µM] | MIC [4] [µM] | MIC (E. coli (ATCC 2592)) [µM] | susceptibility to chymotrypsin by HPLC profile (chymotrypsin) | MBC/MFC ((ATCC 700603) [5]) [µM] | MBC/MFC (C. glabrata (ATCC 2001)) [µM] | MBC/MFC [6] [µM] | MBC/MFC (C. albicans (ATCC 14053)) [µM] | MBC/MFC (C. krusei (ATCC 6258)) [µM] | MBC/MFC (C.tropicalis (ATCC 750)) [µM] | susceptibility to trypsin by HPLC profile (trypsin) | susceptibility to proteases in human serum by HPLC profile [7] | hemolytic activity under the concentration of 100 μM (human erythrocytes) | hemolytic activity compared to polybia-MPI (human erythrocytes) | MIC ((ATCC 700603) [8]) [µM]
CC[C@H](C)[C@H](N)C(=O)N[C@@H](CC(=O)O)C(=O)N[C@@H](Cc1c[nH]c2ccccc12)C(=O)N[C@H](CCCCN)C(=O)N[C@H](CCCCN)C(=O)N[C@@H](CC(C)C)C(=O)N[C@@H](CC(C)C)C(=O)N[C@@H](CC(=O)O)C(=O)N[C@@H](C)C(=O)N[C@@H](C)C(=O)N[C@H](CCCCN)C(=O)N[C@@H](CCC(N)=O)C(=O)N[C@H](C(=O)N[C@@H](CC(C)C)C(N)=O)[C@@H](C)CC [D-lys-MPI] (H-IDW[dK][dK]LLDAA[dK]QIL-NH2) | >256 | 64 (≈ 106 µg/mL) | 256 (≈ 423 µg/mL) | 128 (≈ 212 µg/mL) | >256 | not or only partly degraded | >256 | 256 (≈ 423 µg/mL) | >256 | >256 | 256 (≈ 423 µg/mL) | 128 (≈ 212 µg/mL) | not or only partly degraded | not or only partly degraded | no significant hemolytic activity | abrogated | >256
CC[C@@H](C)[C@@H](N)C(=O)N[C@H](CC(=O)O)C(=O)N[C@H](Cc1c[nH]c2ccccc12)C(=O)N[C@H](CCCCN)C(=O)N[C@H](CCCCN)C(=O)N[C@H](CC(C)C)C(=O)N[C@H](CC(C)C)C(=O)N[C@H](CC(=O)O)C(=O)N[C@H](C)C(=O)N[C@H](C)C(=O)N[C@H](CCCCN)C(=O)N[C@H](CCC(N)=O)C(=O)N[C@@H](C(=O)N[C@H](CC(C)C)C(N)=O)[C@H](C)CC [D-MPI] (H-[dI][dD][dW][dK][dK][dL][dL][dD][dA][dA][dK][dQ][dI][dL]-NH2) | 8 (≈ 13.2 µg/mL) | 16 (≈ 26.5 µg/mL) | 16 (≈ 26.5 µg/mL) | 16 (≈ 26.5 µg/mL) | 16 (≈ 26.5 µg/mL) | not or only partly degraded | 128 (≈ 212 µg/mL) | 32 (≈ 52.9 µg/mL) | 32 (≈ 52.9 µg/mL) | 16 (≈ 26.5 µg/mL) | 8 (≈ 13.2 µg/mL) | 16 (≈ 26.5 µg/mL) | not or only partly degraded | not or only partly degraded | no significant hemolytic activity | decreased | 64 (≈ 106 µg/mL)
IDWKKLLDAAKQIL-NH2 [Polybia-MPI] | 8 | 8 | 32 | 8 | 32 | susceptible | 256 | 32 | 128 | 16 | 16 | 32 | susceptible | susceptible | no significant hemolytic activity | – | 64
